Measured values reported in patent US8877786B2, “Substituted carbamoylmethylamino acetic acid derivatives as novel NEP inhibitors” (Novartis AG, priority 2009, dated 2014).

These molecules were tested against recombinant human neutral endopeptidase (NEP, EC 3.4.24.11) (Homo sapiens (Human), UniProt P08473) (assay: in vitro inhibition of recombinant human neutral endopeptidase (fluorescence lifetime assay)). Details: recombinant human NEP 7 pM, 1 hour pre-incubation at room temperature, pH 7.4, substrate Cys(PT14)-Arg-Arg-Leu-Trp-OH 0.7 μM, FLT read after 1 hour.
Chain of recombinant human neutral endopeptidase (NEP, EC 3.4.24.11) (P08473 whole entry): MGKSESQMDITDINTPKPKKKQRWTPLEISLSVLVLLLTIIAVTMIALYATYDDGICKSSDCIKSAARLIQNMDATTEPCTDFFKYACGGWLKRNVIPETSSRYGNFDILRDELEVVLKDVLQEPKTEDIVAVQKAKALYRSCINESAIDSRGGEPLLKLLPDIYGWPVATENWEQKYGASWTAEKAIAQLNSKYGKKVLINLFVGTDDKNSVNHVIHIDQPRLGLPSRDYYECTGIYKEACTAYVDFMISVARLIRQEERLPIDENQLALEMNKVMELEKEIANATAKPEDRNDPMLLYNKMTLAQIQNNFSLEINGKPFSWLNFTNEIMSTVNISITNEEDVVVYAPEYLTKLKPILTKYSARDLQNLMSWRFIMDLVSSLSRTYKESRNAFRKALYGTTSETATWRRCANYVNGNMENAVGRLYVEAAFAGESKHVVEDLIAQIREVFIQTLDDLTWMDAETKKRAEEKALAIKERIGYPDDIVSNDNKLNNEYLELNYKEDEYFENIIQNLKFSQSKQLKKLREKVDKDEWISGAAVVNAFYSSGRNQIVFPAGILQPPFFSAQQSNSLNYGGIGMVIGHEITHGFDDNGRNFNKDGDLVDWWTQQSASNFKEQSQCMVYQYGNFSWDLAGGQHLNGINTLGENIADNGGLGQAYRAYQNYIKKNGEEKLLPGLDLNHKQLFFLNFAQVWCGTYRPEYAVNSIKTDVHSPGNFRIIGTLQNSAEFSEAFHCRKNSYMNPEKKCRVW
Assay type: biochemical
Text: The activity of a compound according to the present invention can be assessed by the following in vitro & in vivo methods and/or by the following in vitro & in vivo methods well-described in the art. See A fluorescence lifetime-based assay for protease inhibitor profiling on human kallikrein 7 Doering K, Meder G, Hinnenberger M, Woelcke J, Mayr L M, Hassiepen U Biomol Screen.
`C[C@H](N[C@@H](Cc1ccc(-c2cccc(Cl)c2)cc1)C(=O)Nc1nnn[nH]1)C(=O)O` [Example 3-1, (S)-2-[(S)-2-(3′-chloro-biphenyl-4-yl)-1-(1H-tetrazol-5-ylcarbamoyl)-ethylamino]-propionic acid] was tested, and the IC50 was 0.09 nM.
`C[C@H](N[C@@H](Cc1ccc(-c2cc(Cl)ccc2Cl)cc1)C(=O)Nc1nnn[nH]1)C(=O)O` [Example 3-2, (S)-2-[(S)-2-(2′,5′-dichloro-biphenyl-4-yl)-1-(1H-tetrazol-5-ylcarbamoyl)-ethylamino]-propionic acid] gave an IC50 of 0.3 nM.
Molecule `C[C@H](N[C@@H](Cc1ccc(-c2ccccc2)cc1)C(=O)Nc1nnn[nH]1)C(=O)O` [Example 3-4, (S)-2-[(S)-2-Biphenyl-4-yl-1-(1H-tetrazol-5-ylcarbamoyl)-ethylamino]-propionic acid] has an IC50 of 11 nM.
Molecule `C[C@H](N[C@@H](Cc1ccc(-c2cccc(Cl)c2)cc1)C(=O)Nc1cc(O)no1)C(=O)O` [Example 3-7, (S)-2-[(S)-2-(3′-Chloro-biphenyl-4-yl)-1-(3-hydroxy-isoxazol-5-ylcarbamoyl)-ethylamino]-propionic acid] has an IC50 of 2.4 nM.
For `O=C(O)[C@H](CCc1ccccc1)N[C@@H](Cc1ccc(-c2cccc(Cl)c2)cc1)C(=O)Nc1nnn[nH]1` [Example 3-12, (S)-2-[(S)-2-(3′-Chloro-biphenyl-4-yl)-1-(1H-tetrazol-5-ylcarbamoyl)-ethylamino]-4-phenyl-butyric acid], the IC50 was 0.2 nM.
